IC50, AC50 and EC50 data for four molecules are collected here from ChEMBL document CHEMBL1201862, “PubChem BioAssay data set” (2004).

Broadly, the IC50 is the concentration at which inhibition is half-maximal. One may read the AC50 as the concentration at which the activity in the assay is half-maximal. Usually EC50 stands for the midpoint of the concentration-response curve.

Active and inactive are the calls of the source.

In assay [1] the target is T1, Orexin/Hypocretin receptor type 1 (Homo sapiens, UniProt O43613).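 Further: antagonism measured against Orexin-A challenge at about its EC80.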
T1 sequence (O43613 whole entry): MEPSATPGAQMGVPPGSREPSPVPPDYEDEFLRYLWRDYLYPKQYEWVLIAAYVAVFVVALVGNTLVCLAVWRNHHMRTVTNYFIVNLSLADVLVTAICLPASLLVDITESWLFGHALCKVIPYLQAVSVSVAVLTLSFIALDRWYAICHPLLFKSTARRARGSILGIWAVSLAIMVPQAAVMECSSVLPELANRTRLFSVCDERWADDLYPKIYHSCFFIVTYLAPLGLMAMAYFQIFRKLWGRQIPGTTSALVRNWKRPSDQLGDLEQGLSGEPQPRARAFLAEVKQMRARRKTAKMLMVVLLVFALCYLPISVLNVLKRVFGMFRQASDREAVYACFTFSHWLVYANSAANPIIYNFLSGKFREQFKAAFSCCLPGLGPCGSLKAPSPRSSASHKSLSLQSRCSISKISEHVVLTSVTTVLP
As to the kind of experiment: Homogeneous Time Resolved Fluorescence (HTRF)-based cell-based high throughput dose response assay for antagonists of the orexin 1 receptor (OX1R; HCRTR1). [Related pubchem assays (depositor defined):AID434989, AID435008, AID463079, AID485270, AID492963, AID492964, AID492965, AID493232, AID504717, AID504718]. The class given is functional.

The target of assay [2] is T2, Mannose-6-phosphate isomerase (Homo sapiens, UniProt P34949).
T2 sequence (P34949 whole entry): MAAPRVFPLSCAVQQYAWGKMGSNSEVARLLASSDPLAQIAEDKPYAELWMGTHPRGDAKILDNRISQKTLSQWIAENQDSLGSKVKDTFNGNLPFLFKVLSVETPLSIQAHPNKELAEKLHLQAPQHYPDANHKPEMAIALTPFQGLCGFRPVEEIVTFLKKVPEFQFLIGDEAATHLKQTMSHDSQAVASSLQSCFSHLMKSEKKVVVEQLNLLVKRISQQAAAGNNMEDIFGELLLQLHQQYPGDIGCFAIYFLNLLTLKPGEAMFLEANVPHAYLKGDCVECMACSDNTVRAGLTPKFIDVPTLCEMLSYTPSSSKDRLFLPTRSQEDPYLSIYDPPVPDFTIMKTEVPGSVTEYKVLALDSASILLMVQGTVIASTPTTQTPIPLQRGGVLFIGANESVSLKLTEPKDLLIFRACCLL
In words: human PMI inhibitors, high substrate, primary screen, biochemical, fluorescence intensity, high mannose 6-phosphate (AID 1220).

Assay [3] has as its target T3, Microphthalmia-associated transcription factor (Homo sapiens, UniProt O75030).
T3 sequence (O75030 whole entry): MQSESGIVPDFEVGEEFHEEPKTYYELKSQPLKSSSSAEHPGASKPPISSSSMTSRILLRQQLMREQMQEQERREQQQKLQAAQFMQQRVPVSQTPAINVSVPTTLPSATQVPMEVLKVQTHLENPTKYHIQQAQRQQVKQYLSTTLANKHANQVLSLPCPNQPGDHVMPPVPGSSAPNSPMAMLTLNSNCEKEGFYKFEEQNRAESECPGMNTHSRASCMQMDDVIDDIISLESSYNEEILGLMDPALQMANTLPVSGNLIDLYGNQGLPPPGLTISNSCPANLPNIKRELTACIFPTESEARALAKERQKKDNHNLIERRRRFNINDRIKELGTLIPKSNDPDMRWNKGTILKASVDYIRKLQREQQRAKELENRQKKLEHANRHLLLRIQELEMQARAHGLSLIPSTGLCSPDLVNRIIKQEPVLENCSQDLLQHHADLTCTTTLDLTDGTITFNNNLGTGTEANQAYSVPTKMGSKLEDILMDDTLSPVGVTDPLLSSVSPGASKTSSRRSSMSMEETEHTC
In words: TRPM1 promoter luciferase signal decrease, dose response, MITF inhibitor project, cell-based, SK-MEL-5, cherry-picked, set 3 (AID 493073).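 Further: SK-MEL-5 melanoma cells with luciferase driven by the MITF target TRPM1 promoter.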 It is filed as functional.

Assay [4] can be described thus: Shn3 3'UTR reporter inhibitors, dose response, cell-based, Clone20 osteoblasts, firefly luciferase, cherry-picked (AID 624132).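 Further: firefly luciferase luminescence from reporter carrying the Shn3 3'UTR in osteoblasts.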 The class given is functional.
A short description of assay [5]: CellTiter-Glo luminescent dose response of DLD-1 viability loss (AID 1117352). The class given is functional. (In general: ATP-based viability assays read luminescence as a measure of living cells.)
Assay [6] addresses T4, Neuropeptide Y receptor type 1 (Homo sapiens, UniProt P25929).
T4 sequence (P25929 whole entry): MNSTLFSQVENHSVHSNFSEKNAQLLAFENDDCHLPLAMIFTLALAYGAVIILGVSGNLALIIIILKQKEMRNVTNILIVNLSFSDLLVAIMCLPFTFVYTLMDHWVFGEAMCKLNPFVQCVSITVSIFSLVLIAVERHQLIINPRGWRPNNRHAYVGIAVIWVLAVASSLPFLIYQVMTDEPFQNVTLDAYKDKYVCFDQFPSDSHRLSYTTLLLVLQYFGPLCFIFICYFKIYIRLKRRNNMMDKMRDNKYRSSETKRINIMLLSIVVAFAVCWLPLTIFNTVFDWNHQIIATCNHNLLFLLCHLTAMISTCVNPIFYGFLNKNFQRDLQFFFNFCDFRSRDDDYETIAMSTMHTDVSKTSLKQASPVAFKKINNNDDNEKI
In words: Fluorescence-based counterscreen for agonists of NPY-Y2: cell-based high-throughput dose response assay for agonists of NPY-Y1. It is filed as functional. A general note: Counterscreens check selectivity or assay interference.

On to `Oc1ccc(NC(=S)N=Nc2c(O)[nH]c3ccccc23)cc1`, for which the IC50 in assay [1] was 3.24 µM (active).

Regarding `CC1(C)Cc2ccccc2C2=NNC(=O)C2=N1`, the IC50 in assay [2] is 14.1 µM (active). For the same molecule, the AC50 in assay [3] was 3.62 µM (active).

Consider `CCCC(=O)NC(c1ccc(C(C)C)cc1)c1ccc2cccnc2c1O` (stereo unspecified), for which, in assay [4], the AC50 was 0.47 µM (active). On to `Oc1c(Cl)cc(Cl)c(Cl)c1Cc1c(O)c(Cl)cc(Cl)c1Cl` [HEXACHLOROPHENE], for which, in assay [5], the IC50 was 0.0157 µM (active). In addition, in assay [6], the EC50 was 9.8 µM (active).
